Experimental data reported in the supplement of paper PMC5662764.
± gives the standard deviation of the averaged measurements.

Legend:
Assay in all cases: normalised growth rate inhibition (GR value) relative to DMSO control (GR (1 = untreated growth, 0 = cytostasis, <0 = cytotoxic)); higher = less growth inhibition
Conditions in all cases: 72 h
BT20 = system: BT20
Description: (§1)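 Breast cancer cell lines (BT-20, Hs 578T, MCF 10A, MCF7, MDA-MB-231, SK-BR-3) were plated in 384-well plates and treated 24 h later with drugs at six concentrations (0.04-10 µM). Viable cells were counted by Hoechst/dead-cell-stain imaging at 0 and 72 h. Counts were normalised to DMSO controls on the same plate to give the relative cell count and the growth-rate inhibition (GR) value; technical plate triplicates were averaged for each biological replicate.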

HS578T = system: HS578T
Description: as §1

MCF10A = system: MCF10A
Description: as §1

MCF7 = system: MCF7
Description: as §1

MDAMB231 = system: MDAMB231
Description: as §1

SKBR3 = system: SKBR3
Description: as §1

| Compound | normalised growth rate inhibition (BT20; 0.04 µM) | normalised growth rate inhibition (BT20; 0.12 µM) | normalised growth rate inhibition (BT20; 0.37 µM) | normalised growth rate inhibition (BT20; 1.11 µM) | normalised growth rate inhibition (BT20; 3.33 µM) | normalised growth rate inhibition (BT20; 10 µM) | normalised growth rate inhibition (HS578T; 0.04 µM) | normalised growth rate inhibition (HS578T; 0.12 µM) | normalised growth rate inhibition (HS578T; 0.37 µM) | normalised growth rate inhibition (HS578T; 1.11 µM) | normalised growth rate inhibition (HS578T; 3.33 µM) | normalised growth rate inhibition (HS578T; 10 µM) | normalised growth rate inhibition (MCF10A; 0.04 µM) | normalised growth rate inhibition (MCF10A; 0.12 µM) | normalised growth rate inhibition (MCF10A; 0.37 µM) | normalised growth rate inhibition (MCF10A; 1.11 µM) | normalised growth rate inhibition (MCF10A; 3.33 µM) | normalised growth rate inhibition (MCF10A; 10 µM) | normalised growth rate inhibition (MCF7; 0.04 µM) | normalised growth rate inhibition (MCF7; 0.12 µM) | normalised growth rate inhibition (MCF7; 0.37 µM) | normalised growth rate inhibition (MCF7; 1.11 µM) | normalised growth rate inhibition (MCF7; 3.33 µM) | normalised growth rate inhibition (MCF7; 10 µM) | normalised growth rate inhibition (MDAMB231; 0.04 µM) | normalised growth rate inhibition (MDAMB231; 0.12 µM) | normalised growth rate inhibition (MDAMB231; 0.37 µM) | normalised growth rate inhibition (MDAMB231; 1.11 µM) | normalised growth rate inhibition (MDAMB231; 3.33 µM) | normalised growth rate inhibition (MDAMB231; 10 µM) | normalised growth rate inhibition (SKBR3; 0.04 µM) | normalised growth rate inhibition (SKBR3; 0.12 µM) | normalised growth rate inhibition (SKBR3; 0.37 µM) | normalised growth rate inhibition (SKBR3; 1.11 µM) | normalised growth rate inhibition (SKBR3; 3.33 µM) | normalised growth rate inhibition (SKBR3; 10 µM) |
| --- | --- | --- | --- | --- | --- | --- | --- | --- | --- | --- | --- | --- | --- | --- | --- | --- | --- | --- | --- | --- | --- | --- | --- | --- | --- | --- | --- | --- | --- | --- | --- | --- | --- | --- | --- | --- |
| COCC(=O)NC/C=C/c1ccc2ncnc(Nc3ccc(Oc4ccc(C)nc4)c(C)c3)c2c1 | 0.928 ± 0.0096 | 0.918 ± 0.026 | 0.892 ± 0.045 | 0.805 ± 0.032 | 0.767 ± 0.053 | 0.531 ± 0.052 | 0.966 ± 0.018 | 0.975 ± 0.035 | 0.963 ± 0.026 | 0.956 ± 0.042 | 0.928 ± 0.025 | 0.857 ± 0.017 | 1.011 ± 0.0036 | 0.9964 ± 0.006 | 0.989 ± 0.014 | 0.984 ± 0.01 | 0.9849 ± 0.0016 | 0.9384 ± 0.003 | 0.835 ± 0.1 | 0.803 ± 0.063 | 0.786 ± 0.025 | 0.796 ± 0.066 | 0.822 ± 0.084 | 0.499 ± 0.13 | 0.899 ± 0.13 | 0.896 ± 0.13 | 0.897 ± 0.12 | 0.912 ± 0.088 | 0.832 ± 0.15 | 0.812 ± 0.14 | 0.508 ± 0.27 | 0.315 ± 0.22 | 0.188 ± 0.21 | 0.165 ± 0.12 | 0.0772 ± 0.1 | -0.0874 ± 0.078 |
| COc1cc(C(=O)NC2CCN(C)CC2)ccc1Nc1ncc2c(n1)N(C1CCCC1)CCC(=O)N2C(C)C | 0.783 ± 0.068 | 0.948 ± 0.1 | 0.933 ± 0.14 | 0.936 ± 0.11 | 0.888 ± 0.1 | 0.734 ± 0.15 | 0.972 ± 0.024 | 0.964 ± 0.045 | 0.93 ± 0.03 | 0.917 ± 0.0095 | 0.8447 ± 0.0079 | 0.275 ± 0.079 | 0.975 ± 0.04 | 0.979 ± 0.045 | 0.984 ± 0.019 | 0.972 ± 0.024 | 0.948 ± 0.029 | 0.758 ± 0.086 | 0.764 ± 0.077 | 0.84 ± 0.053 | 0.858 ± 0.07 | 0.807 ± 0.02 | 0.758 ± 0.065 | 0.298 ± 0.024 | 0.765 ± 0.047 | 0.884 ± 0.069 | 0.86 ± 0.068 | 0.834 ± 0.077 | 0.767 ± 0.093 | 0.308 ± 0.08 | 0.601 ± 0.093 | 0.755 ± 0.053 | 0.775 ± 0.079 | 0.758 ± 0.088 | 0.787 ± 0.082 | 0.511 ± 0.17 |
| COc1cc2ncn(-c3cc(OCc4ccccc4C(F)(F)F)c(C(N)=O)s3)c2cc1OC | 0.853 ± 0.061 | 0.614 ± 0.18 | 0.331 ± 0.27 | -0.00404 ± 0.12 | -0.126 ± 0.06 | -0.0325 ± 0.31 | 0.959 ± 0.075 | 0.603 ± 0.19 | 0.0393 ± 0.039 | -0.137 ± 0.087 | -0.145 ± 0.12 | 0.00336 ± 0.2 | 0.96 ± 0.027 | 0.817 ± 0.083 | 0.412 ± 0.13 | 0.0464 ± 0.034 | -0.0733 ± 0.13 | -0.101 ± 0.17 | 0.68 ± 0.15 | 0.279 ± 0.18 | 0.14 ± 0.023 | 0.072 ± 0.019 | 0.0415 ± 0.007 | 0.167 ± 0.099 | 0.892 ± 0.064 | 0.736 ± 0.11 | 0.404 ± 0.12 | 0.0556 ± 0.12 | -0.0347 ± 0.12 | 0.0238 ± 0.14 | 0.847 ± 0.018 | 0.463 ± 0.19 | -0.0831 ± 0.12 | -0.157 ± 0.18 | -0.213 ± 0.17 | 0.0233 ± 0.42 |
| COc1cc2ncnc(-n3nc(-c4ccccn4)nc3N)c2cc1OC | 1.07 ± 0.0067 | 1.03 ± 0.032 | 1.01 ± 0.036 | 1.02 ± 0.014 | 0.954 ± 0.047 | 0.588 ± 0.22 | 1.035 ± 0.0072 | 1.04 ± 0.021 | 1.05 ± 0.033 | 1.02 ± 0.053 | 0.978 ± 0.083 | 0.686 ± 0.15 | 1.018 ± 0.01 | 1.01 ± 0.014 | 1.008 ± 0.0099 | 0.994 ± 0.011 | 0.972 ± 0.018 | 0.729 ± 0.26 | 1.09 ± 0.051 | 1.04 ± 0.045 | 1.05 ± 0.083 | 1.01 ± 0.1 | 0.918 ± 0.14 | 0.499 ± 0.41 | 1.05 ± 0.057 | 1.02 ± 0.058 | 0.785 ± 0.4 | 0.938 ± 0.041 | 0.903 ± 0.1 | 0.534 ± 0.25 | 1.16 ± 0.032 | 1.05 ± 0.033 | 1.04 ± 0.069 | 0.95 ± 0.13 | 0.871 ± 0.17 | 0.479 ± 0.44 |
| C[C@@H](N)c1ccc(C(=O)Nc2ccnc3[nH]ccc23)cc1 | 0.994 ± 0.068 | 1.01 ± 0.098 | 0.962 ± 0.084 | 0.895 ± 0.073 | 0.802 ± 0.09 | 0.296 ± 0.17 | 0.884 ± 0.015 | 0.821 ± 0.059 | 0.802 ± 0.03 | 0.757 ± 0.041 | 0.626 ± 0.054 | 0.0283 ± 0.12 | 0.9685 ± 0.0076 | 0.877 ± 0.069 | 0.888 ± 0.038 | 0.864 ± 0.047 | 0.805 ± 0.089 | 0.336 ± 0.18 | 1.06 ± 0.049 | 1.04 ± 0.043 | 1 ± 0.039 | 0.905 ± 0.11 | 0.63 ± 0.19 | -0.243 ± 0.13 | 0.873 ± 0.12 | 0.849 ± 0.1 | 0.777 ± 0.11 | 0.703 ± 0.086 | 0.586 ± 0.062 | -0.303 ± 0.14 | 0.839 ± 0.19 | 0.836 ± 0.19 | 0.782 ± 0.14 | 0.667 ± 0.18 | 0.522 ± 0.18 | -0.122 ± 0.18 |
| Cc1cnc(-c2cnc(NCCNc3ccc(C#N)cn3)nc2-c2ccc(Cl)cc2Cl)[nH]1 | 0.915 ± 0.11 | 0.932 ± 0.082 | 0.959 ± 0.087 | 1 ± 0.093 | 1.01 ± 0.069 | 0.875 ± 0.16 | 0.97 ± 0.014 | 0.9636 ± 0.0048 | 0.962 ± 0.018 | 0.911 ± 0.059 | 0.907 ± 0.018 | 0.525 ± 0.14 | 1.01 ± 0.032 | 1.01 ± 0.041 | 0.997 ± 0.07 | 0.952 ± 0.12 | 0.9 ± 0.12 | 0.799 ± 0.13 | 0.844 ± 0.082 | 0.786 ± 0.085 | 0.776 ± 0.095 | 0.586 ± 0.16 | 0.585 ± 0.1 | 0.222 ± 0.061 | 0.895 ± 0.041 | 0.823 ± 0.039 | 0.831 ± 0.021 | 0.827 ± 0.061 | 0.831 ± 0.024 | 0.762 ± 0.035 | 0.731 ± 0.12 | 0.725 ± 0.17 | 0.786 ± 0.16 | 0.749 ± 0.17 | 0.753 ± 0.17 | 0.465 ± 0.2 |
| OCCCNc1cc(-c2ccnc(Nc3cccc(Cl)c3)n2)ccn1 | 0.32 ± 0.6 | -0.203 ± 0.17 | -0.291 ± 0.18 | -0.323 ± 0.18 | -0.37 ± 0.19 | -0.43 ± 0.17 | 0.343 ± 0.56 | -0.0634 ± 0.17 | -0.144 ± 0.099 | -0.162 ± 0.09 | -0.188 ± 0.14 | -0.228 ± 0.13 | 0.263 ± 0.55 | -0.205 ± 0.21 | -0.228 ± 0.22 | -0.24 ± 0.21 | -0.242 ± 0.21 | -0.231 ± 0.16 | 0.312 ± 0.68 | -0.264 ± 0.073 | -0.315 ± 0.074 | -0.332 ± 0.09 | -0.363 ± 0.09 | -0.429 ± 0.097 | 0.257 ± 0.49 | -0.139 ± 0.17 | -0.226 ± 0.15 | -0.295 ± 0.15 | -0.318 ± 0.15 | -0.319 ± 0.13 | 0.398 ± 0.76 | 0.11 ± 0.49 | -0.227 ± 0.18 | -0.278 ± 0.16 | -0.344 ± 0.15 | -0.414 ± 0.18 |
